Laboratory results from US8809325B2, “Benzyl-oxathiazine derivatives substituted with adamantane and noradamantane, medicaments containing said compounds and use thereof” (SANOFI, priority 2011, dated 2014).

Molecular target: human 11β-HSD1 microsome fraction (Homo sapiens, UniProt P28845)
Assay: Enzymatic 11beta-HSD1 test (SPA-based detection)
Type: biochemical
Conditions: human 11β-HSD1 microsomes, [1,2-3H]-cortisone, NADPH, 37° C., 1 hour
Method: Enzymatic 11beta-HSD1 Test:
To measure the activity of the compounds, an SPA-based detection method (Solly et al. 2005) was employed. First of all, 20 μl of the human 11β-HSD1 microsome fraction (0.2 μg of protein), prepared in 50 mM HEPES, 0.1% BSA (w/v), were applied to a plate with 384 wells. The test compounds (0.09 μl) were applied to the assay plate in 100% DMSO. The reaction was started by addition of 20 μl of [1,2-^3H]-cortisone (0.1 μCi/[…]) in assay buffer comprising 25 mM HEPES, 100 mM KCl, 5 mM NaCl, 2 mM MgCl2 and 0.25 mM NADPH. The plate was agitated at 37° C. for 1 hour. At the same time, a stop solution comprising 20 mg/ml SPA-PVT beads, 1.6 mg/ml monoclonal cortisol antibody and 0.01 mM SSR110887 (inhibitor from the Biovitrium patent) in 50 mM HEPES, 1 M NaCl and 1 M KCl was stirred at room temperature. To stop the reaction, 25 μl of the stop solution were added to each well. The plate was agitated gently at room temperature for 1 further hour and then centrifuged at 500 gav for 1 minute, in order that the SPA beads could settle out. The plate was then read in a Wallac-1450-Microbeta unit with a standard SPA program (counting time 1 min/well). The comparative compound was glycyrrhetinic acid.
Protein and radioactive substrate were dispensed with a Biomek FX unit (Beckman Coulter) for handling liquids. […]

Sequence of human 11β-HSD1 microsome fraction (P28845 whole entry): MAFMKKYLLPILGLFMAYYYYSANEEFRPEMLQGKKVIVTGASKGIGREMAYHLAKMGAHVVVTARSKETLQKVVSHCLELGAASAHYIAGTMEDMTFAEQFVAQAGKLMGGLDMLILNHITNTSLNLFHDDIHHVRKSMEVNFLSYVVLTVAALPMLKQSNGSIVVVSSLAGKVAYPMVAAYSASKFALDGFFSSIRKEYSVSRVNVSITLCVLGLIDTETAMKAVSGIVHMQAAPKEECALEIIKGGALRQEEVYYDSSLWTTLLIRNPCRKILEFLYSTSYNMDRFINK

CCN1CC(c2ccc(C[C@@H]3C(C)(C)OC(NC45C[C@@H]6C[C@@H](C[C@H]4C6)C5)=NS3(=O)=O)c(F)c2)C1 [Example 6, {(R)-5-[4-(1-Ethyl-azetidin-3-yl)-2-fluoro-benzyl]-6,6-dimethyl-4,4-dioxo-5,6-dihydro-4H-4lambda6-[1,4,3]oxathiazin-2-yl}-(2R,3aS,5S,6aS)-hexahydro-2,5-methano-pentalen-3a-yl-amine]
IC50: 3 nM
